Holding throughout (assay): Binding Assay
Experiment [1] concerns the target T1, Steroid C26-monooxygenase (Mycobacterium tuberculosis (strain CDC 1551 / Oshkosh), UniProt P9WPL4).
T1 sequence (P9WPL4 whole entry): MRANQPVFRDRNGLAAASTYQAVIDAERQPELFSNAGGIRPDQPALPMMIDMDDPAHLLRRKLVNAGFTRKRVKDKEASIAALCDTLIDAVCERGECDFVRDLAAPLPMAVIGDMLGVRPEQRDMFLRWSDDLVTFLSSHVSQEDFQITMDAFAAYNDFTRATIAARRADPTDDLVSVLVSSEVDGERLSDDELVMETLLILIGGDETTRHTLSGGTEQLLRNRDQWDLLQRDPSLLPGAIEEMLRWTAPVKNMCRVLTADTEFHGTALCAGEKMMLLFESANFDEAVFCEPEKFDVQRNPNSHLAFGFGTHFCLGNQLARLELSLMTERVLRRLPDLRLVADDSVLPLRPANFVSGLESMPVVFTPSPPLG
An excerpt:
(§1) Substrate and ligand binding assay using UV- visible absorbance analysis of CYP142 was done on a Cary UV-50 UV-visible scanning spectrophotometer (Varian, UK) using a 1-cm path length quartz cuvette, recording spectra between 250 and 800 nm.

Experiment [2] concerns the target T2, Steroid C26-monooxygenase (Mycobacterium tuberculosis (strain CDC 1551 / Oshkosh), UniProt P9WPP0).
T2 sequence (P9WPP0 whole entry): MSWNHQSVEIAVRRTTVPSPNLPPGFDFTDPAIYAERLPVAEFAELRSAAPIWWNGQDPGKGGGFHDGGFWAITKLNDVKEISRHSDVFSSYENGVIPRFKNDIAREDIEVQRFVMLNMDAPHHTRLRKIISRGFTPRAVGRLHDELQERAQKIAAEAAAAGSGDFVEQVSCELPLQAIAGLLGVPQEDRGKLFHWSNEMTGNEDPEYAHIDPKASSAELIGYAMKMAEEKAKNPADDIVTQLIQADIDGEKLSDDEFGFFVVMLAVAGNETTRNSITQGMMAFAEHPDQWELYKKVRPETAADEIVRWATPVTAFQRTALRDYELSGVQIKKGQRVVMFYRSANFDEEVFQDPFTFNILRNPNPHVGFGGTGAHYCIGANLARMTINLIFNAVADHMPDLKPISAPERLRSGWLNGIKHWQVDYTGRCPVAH
From the text: as §1

In another experiment the target is T3, Cytochrome P450 144 (Mycobacterium tuberculosis (strain CDC 1551 / Oshkosh), UniProt P9WPL0).
T3 sequence (P9WPL0 whole entry): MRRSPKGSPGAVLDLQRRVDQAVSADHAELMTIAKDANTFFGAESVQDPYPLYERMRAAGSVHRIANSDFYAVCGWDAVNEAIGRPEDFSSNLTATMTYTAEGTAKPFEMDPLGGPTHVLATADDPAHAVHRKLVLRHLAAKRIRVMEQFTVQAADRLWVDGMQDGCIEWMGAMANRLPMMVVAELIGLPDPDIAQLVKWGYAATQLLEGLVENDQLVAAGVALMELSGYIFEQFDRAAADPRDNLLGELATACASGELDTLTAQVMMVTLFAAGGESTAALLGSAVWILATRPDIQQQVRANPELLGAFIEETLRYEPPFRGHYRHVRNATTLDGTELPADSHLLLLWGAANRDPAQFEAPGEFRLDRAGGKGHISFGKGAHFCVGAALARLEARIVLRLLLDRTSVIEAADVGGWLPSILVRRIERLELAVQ
From the text: as §1

Usually Kd stands for the equilibrium constant for the complex coming apart. Read a high Kd as a looser complex.

Turning to `c1ccc(-c2c[nH]cn2)cc1`, the dissociation constant Kd in experiment [1] is 12 µM; in experiment [2] it was 216 µM; on Cytochrome P450 144, 280 µM.

As to `Clc1ccccc1C(c1ccccc1)(c1ccccc1)n1ccnc1`, the figures for the Kd (in experiment [1]; in experiment [2]; at Cytochrome P450 144) were 3.8 µM, 5.3 µM and 0.37 µM, respectively.

Take `CC(C)CCC[C@@H](C)[C@H]1CC[C@H]2[C@@H]3CCC4=CC(=O)CC[C@]4(C)[C@H]3CC[C@]12C` [4-Cholesten-3-one]: the Kd in experiment [1] was determined as 0.36 µM; in experiment [2], 1.2 µM.

With `CC(=O)N1CCN(c2ccc(OC[C@H]3CO[C@](Cn4ccnc4)(c4ccc(Cl)cc4Cl)O3)cc2)CC1` [24F2-1,25(OH)D3], the dissociation constant Kd in experiment [1] is 21 µM; in experiment [2], 27.1 µM; on Cytochrome P450 144, 134 µM.

On to `CC(C)CCC[C@@H](C)[C@H]1CC[C@H]2[C@@H]3CC=C4C[C@@H](O)CC[C@]4(C)[C@H]3CC[C@]12C` [(1S,2R,5S,10S,11S,14R,15R)-2,15-dimethyl-14-[(2R)-6-methylheptan-2-yl]tetracyclo[8.7.0.0^{2,7}.0^{11,15}]heptadec-7-en-5-ol], for which the figures for the Kd in experiment [1] and in experiment [2] were 0.34 µM and 0.11 µM, respectively.

As for `Clc1ccc(CO[C@@H](Cn2ccnc2)c2ccc(Cl)cc2Cl)c(Cl)c1` [Brentan], the Kd was 4 µM in experiment [1], 4.6 µM in experiment [2] and 0.98 µM at Cytochrome P450 144.

For `Clc1ccc(COC(Cn2ccnc2)c2ccc(Cl)cc2Cl)cc1` (configuration not stated) [ECONAZOLE], the results for the Kd (in experiment [1]; in experiment [2]; on Cytochrome P450 144) were 4.6 µM, 11.7 µM and 0.78 µM, respectively.

As to `OC(Cn1cncn1)(Cn1cncn1)c1ccc(F)cc1F` [Fungata], the results for the dissociation constant (Kd) in experiment [1] and in experiment [2] were 860 µM and 43.1 µM, respectively.

In experiment [2], `CCC(C)n1ncn(-c2ccc(N3CCN(c4ccc(OC[C@H]5CO[C@](Cn6cncn6)(c6ccc(Cl)cc6Cl)O5)cc4)CC3)cc2)c1=O` (some centres not stated) [Oriconazole] showed a Kd of 30.2 µM.

For the origin of these results see BindingDB's records for doi:10.1074/jbc.M110.164293 (Manchester Interdisciplinary Biocentre, 2010).
